# Test system: patients with refractory metastatic colorectal cancer (mCRC)
# Assay: PFS, OS and disease control in the training (evaluation) cohort of refractory mCRC patients receiving TAS-102 (n=52, Japan), by baseline characteristics, SNP genotype and toxicity
# Assay type: in vivo, human
# Conditions: for OS HR (95% CI)‡ / PFS HR (95% CI) ‡: multivariable; for OS HR (95% CI)† / PFS HR (95% CI) †: univariate
# Protocol: All patients underwent the treatment in salvage-line setting. […]
# (§1) Genomic DNA was extracted from peripheral whole blood in patients of all cohorts using the QIAmp Kit (Qiagen, Valencia, Calif., USA) according to the manufacturer's protocol (www.qiagen.com). The candidate SNPs were genotyped using PCR-based direct DNA sequence analysis by ABI 3100A Capillary Genetic Analyzer and Sequencing Scanner v1.0 (Applied Biosystems). Amplification of extracted DNA was carried out using both forward and reverse primers for each gene polymorphism as shown in Table 1. […] The investigators analyzing SNPs were blinded to the clinical data of the study patients.
# The primary endpoint in this study was progression-free survival (PFS), and the secondary endpoints were overall survival (OS) and disease control rate (DCR). PFS was calculated from the date of starting treatment to the first observation of disease progression or death from any cause. If a patient had no disease progression or death, PFS was censored at the date of last follow up. OS was calculated from the date of starting treatment until the date of death from any cause or the date of the last follow-up, at which point OS was censored. The disease control rate (DCR) was defined as the proportion of patients who achieved a stable disease (SD) or […] according to RECISTv1.1. Chi-square test was used to examine the difference in baseline patient characteristics among the three cohorts. Allelic distribution of all SNPs by ethnicity for deviation from Hardy-Weinberg equilibrium and the allelic frequencies of SNPs were tested using the Chi-square tests with one degree of freedom. The associations between candidate SNPs and disease control, and toxicities were examined using contingency tables and Fisher's exact test. The associations of SNPs with PFS and OS were analysed using Kaplan-Meier curves and the log-rank test. Because the true mode of inheritance of candidate SNPs was not established yet, a codominant or dominant genetic model if appropriate was considered.
# All patients underwent the treatment in salvage-line setting. […] In all patients, adverse events were graded according to the Common Terminology Criteria for Adverse Events, version 4.0. […]
# as §1, with “tested” for “genotyped”, “Biosystems).” for “Biosystems). Amplification of extracted DNA was carried out using both forward and reverse primers for each gene polymorphism as shown in Table 1.”, “data.” for “data of the study patients.”
# The primary endpoint in this study was progression-free survival (PFS), and the secondary endpoints were overall survival (OS) and disease control rate (DCR).
substance,measurement,setting,value
Trifluridine/tipiracil [TAS-102],Disease Control Rate PD,,10 (71%)
same,Disease Control Rate SD,,4 (29%)
same,"OS median, months (95% CI)",ATR rs2227928 A/A,"5.7 (2.7, 12.4) months"
same,"PFS median, months (95% CI)",ATR rs2227928 A/A,"2.1 (1.6, 3.4) months"
same,"OS median, months (95% CI)",ATR rs2227928 A/G,"8.1 (4.9, 15.6) months"
same,"PFS median, months (95% CI)",ATR rs2227928 A/G,"2.9 (1.6, 3.4) months"
same,OS HR (95% CI)‡,ATR rs2227928 A/G vs A/A,"0.68 (0.26, 1.74)"
same,PFS HR (95% CI) ‡,ATR rs2227928 A/G vs A/A,"0.82 (0.41, 1.63)"
same,OS HR (95% CI)†,ATR rs2227928 A/G vs A/A,"0.71 (0.28, 1.78)"
same,PFS HR (95% CI) †,ATR rs2227928 A/G vs A/A,"0.75 (0.38, 1.51)"
same,"OS median, months (95% CI)",ATR rs2227928 Any G,"8.3 (6.3, 15.6) months"
same,"PFS median, months (95% CI)",ATR rs2227928 Any G,"3.0 (2.1, 3.7) months"
same,OS HR (95% CI)‡,ATR rs2227928 Any G vs A/A,"0.50 (0.20, 1.27)"
same,PFS HR (95% CI) ‡,ATR rs2227928 Any G vs A/A,"0.67 (0.35, 1.29)"
same,OS HR (95% CI)†,ATR rs2227928 Any G vs A/A,"0.57 (0.24, 1.40)"
same,PFS HR (95% CI) †,ATR rs2227928 Any G vs A/A,"0.64 (0.33, 1.23)"
same,"PFS median, months (95% CI)",ATR rs2227928 G/G,"3.7 (2.1, 6.6) months"
same,OS HR (95% CI)‡,ATR rs2227928 G/G vs A/A,"0.18 (0.04, 0.93)"
same,PFS HR (95% CI) ‡,ATR rs2227928 G/G vs A/A,"0.43 (0.17, 1.08)"
same,OS HR (95% CI)†,ATR rs2227928 G/G vs A/A,"0.28 (0.06, 1.31)"
same,PFS HR (95% CI) †,ATR rs2227928 G/G vs A/A,"0.46 (0.19, 1.10)"
same,"OS median, months (95% CI)",BRCA1 rs16941 Any C,"8.3 (5.3, 14.8+) months"
same,"PFS median, months (95% CI)",BRCA1 rs16941 Any C,"3.0 (2.0, 4.2) months"
same,OS HR (95% CI)‡,BRCA1 rs16941 Any C vs T/T,"1.14 (0.46, 2.82)"
same,PFS HR (95% CI) ‡,BRCA1 rs16941 Any C vs T/T,"1.04 (0.54, 2.00)"
same,OS HR (95% CI)†,BRCA1 rs16941 Any C vs T/T,"0.90 (0.38, 2.15)"
same,PFS HR (95% CI) †,BRCA1 rs16941 Any C vs T/T,"0.87 (0.47, 1.64)"
same,"PFS median, months (95% CI)",BRCA1 rs16941 C/C,"2.7 (2.0, 4.2) months"
same,OS HR (95% CI)‡,BRCA1 rs16941 C/C vs T/T,"0.37 (0.05, 3.07)"
same,PFS HR (95% CI) ‡,BRCA1 rs16941 C/C vs T/T,"1.66 (0.58, 4.74)"
same,OS HR (95% CI)†,BRCA1 rs16941 C/C vs T/T,"0.28 (0.04, 2.20)"
same,PFS HR (95% CI) †,BRCA1 rs16941 C/C vs T/T,"1.06 (0.38, 2.90)"
same,"OS median, months (95% CI)",BRCA1 rs16941 T/C,"8.1 (3.4, 14.8+) months"
same,"PFS median, months (95% CI)",BRCA1 rs16941 T/C,"3.2 (1.8, 4.6) months"
same,OS HR (95% CI)‡,BRCA1 rs16941 T/C vs T/T,"1.36 (0.55, 3.40)"
same,PFS HR (95% CI) ‡,BRCA1 rs16941 T/C vs T/T,"0.94 (0.47, 1.88)"
same,OS HR (95% CI)†,BRCA1 rs16941 T/C vs T/T,"1.13 (0.47, 2.74)"
same,PFS HR (95% CI) †,BRCA1 rs16941 T/C vs T/T,"0.84 (0.43, 1.62)"
same,"OS median, months (95% CI)",BRCA1 rs16941 T/T,"6.3 (4.4, 15.6+) months"
same,"PFS median, months (95% CI)",BRCA1 rs799917 A/A,"2.7 (2.0, 4.2) months"
same,OS HR (95% CI)‡,BRCA1 rs799917 A/A vs G/G,"0.37 (0.05, 3.07)"
same,PFS HR (95% CI) ‡,BRCA1 rs799917 A/A vs G/G,"1.66 (0.58, 4.74)"
same,OS HR (95% CI)†,BRCA1 rs799917 A/A vs G/G,"0.28 (0.04, 2.20)"
same,PFS HR (95% CI) †,BRCA1 rs799917 A/A vs G/G,"1.06 (0.38, 2.90)"
same,"OS median, months (95% CI)",BRCA1 rs799917 Any A,"8.3 (5.3, 14.8+) months"
same,"PFS median, months (95% CI)",BRCA1 rs799917 Any A,"3.0 (2.0, 4.2) months"
same,OS HR (95% CI)‡,BRCA1 rs799917 Any A vs G/G,"1.14 (0.46, 2.82)"
same,PFS HR (95% CI) ‡,BRCA1 rs799917 Any A vs G/G,"1.04 (0.54, 2.00)"
same,OS HR (95% CI)†,BRCA1 rs799917 Any A vs G/G,"0.90 (0.38, 2.15)"
same,PFS HR (95% CI) †,BRCA1 rs799917 Any A vs G/G,"0.87 (0.47, 1.64)"
same,"OS median, months (95% CI)",BRCA1 rs799917 G/A,"8.1 (3.4, 14.8+) months"
same,"PFS median, months (95% CI)",BRCA1 rs799917 G/A,"3.2 (1.8, 4.6) months"
same,OS HR (95% CI)‡,BRCA1 rs799917 G/A vs G/G,"1.36 (0.55, 3.40)"
same,PFS HR (95% CI) ‡,BRCA1 rs799917 G/A vs G/G,"0.94 (0.47, 1.88)"
same,OS HR (95% CI)†,BRCA1 rs799917 G/A vs G/G,"1.13 (0.47, 2.74)"
same,PFS HR (95% CI) †,BRCA1 rs799917 G/A vs G/G,"0.84 (0.43, 1.62)"
same,"OS median, months (95% CI)",BRCA1 rs799917 G/G,"6.3 (4.4, 15.6+) months"
same,"OS median, months (95% CI)",BRCA2 rs144848 A/A,"8.3 (5.4, 12.4) months"
same,"PFS median, months (95% CI)",BRCA2 rs144848 A/A,"2.7 (2.0, 3.4) months"
same,"PFS median, months (95% CI)",BRCA2 rs144848 A/C,"3.5 (1.5, 4.9) months"
same,OS HR (95% CI)‡,BRCA2 rs144848 A/C vs A/A,"0.97 (0.34, 2.76)"
same,PFS HR (95% CI) ‡,BRCA2 rs144848 A/C vs A/A,"0.82 (0.39, 1.72)"
same,OS HR (95% CI)†,BRCA2 rs144848 A/C vs A/A,"0.91 (0.33, 2.57)"
same,PFS HR (95% CI) †,BRCA2 rs144848 A/C vs A/A,"0.76 (0.37, 1.56)"
same,"OS median, months (95% CI)",BRCA2 rs144848 Any C,"8.1 (2.8, 15.6+) months"
same,"PFS median, months (95% CI)",BRCA2 rs144848 Any C,"3.3 (1.6, 4.6) months"
same,OS HR (95% CI)‡,BRCA2 rs144848 Any C vs A/A,"1.14 (0.46, 2.79)"
same,PFS HR (95% CI) ‡,BRCA2 rs144848 Any C vs A/A,"0.92 (0.48, 1.78)"
same,OS HR (95% CI)†,BRCA2 rs144848 Any C vs A/A,"1.07 (0.44, 2.58)"
same,PFS HR (95% CI) †,BRCA2 rs144848 Any C vs A/A,"0.82 (0.43, 1.54)"
same,"OS median, months (95% CI)",BRCA2 rs144848 C/C,"8.1 (2.7, 8.1+) months"
same,"PFS median, months (95% CI)",BRCA2 rs144848 C/C,"2.7 (0.9, 6.0+) months"
same,OS HR (95% CI)‡,BRCA2 rs144848 C/C vs A/A,"1.62 (0.44, 6.02)"
same,PFS HR (95% CI) ‡,BRCA2 rs144848 C/C vs A/A,"1.28 (0.47, 3.50)"
same,OS HR (95% CI)†,BRCA2 rs144848 C/C vs A/A,"1.48 (0.41, 5.34)"
same,PFS HR (95% CI) †,BRCA2 rs144848 C/C vs A/A,"0.99 (0.38, 2.59)"
same,"OS median, months (95% CI)",CHEK2 rs22236142 Any C,"8.3 (5.4, 15.6+) months"
same,"PFS median, months (95% CI)",CHEK2 rs22236142 Any C,"2.6 (2.1, 3.4) months"
same,OS HR (95% CI)‡,CHEK2 rs22236142 Any C vs G/G,"0.66 (0.26, 1.65)"
same,PFS HR (95% CI) ‡,CHEK2 rs22236142 Any C vs G/G,"1.15 (0.59, 2.22)"
same,OS HR (95% CI)†,CHEK2 rs22236142 Any C vs G/G,"0.84 (0.35, 2.00)"
same,PFS HR (95% CI) †,CHEK2 rs22236142 Any C vs G/G,"1.33 (0.70, 2.50)"
same,"OS median, months (95% CI)",CHEK2 rs22236142 C/C,"7.5 (3.3, 15.6+) months"
same,"PFS median, months (95% CI)",CHEK2 rs22236142 C/C,"2.7 (1.6, 4.4) months"
same,OS HR (95% CI)‡,CHEK2 rs22236142 C/C vs G/G,"0.88 (0.28, 2.77)"
same,PFS HR (95% CI) ‡,CHEK2 rs22236142 C/C vs G/G,"1.18 (0.50, 2.78)"
same,OS HR (95% CI)†,CHEK2 rs22236142 C/C vs G/G,"0.93 (0.31, 2.81)"
same,PFS HR (95% CI) †,CHEK2 rs22236142 C/C vs G/G,"1.15 (0.49, 2.74)"
same,"OS median, months (95% CI)",CHEK2 rs22236142 G/C,"8.3 (4.9, 12.4+) months"
same,"PFS median, months (95% CI)",CHEK2 rs22236142 G/C,"2.5 (1.8, 3.5) months"
